Assay results taken from BindingDB's records for doi:10.1021/jm900597q (Gilead Sciences, 2009).

Legend:
[1] = molecular target: Reverse transcriptase/RNaseH (Human immunodeficiency virus 1, UniProt Q72547); assay: Fluorescence-Based RNase H Assay; conditions: pH 8; 20 °C
Ribonuclease H1 = molecular target: T1, Ribonuclease H1 (Homo sapiens, UniProt O60930); assay: Fluorescence-Based RNase H Assay; conditions: pH 8; 20 °C
T1 sequence (O60930 whole entry): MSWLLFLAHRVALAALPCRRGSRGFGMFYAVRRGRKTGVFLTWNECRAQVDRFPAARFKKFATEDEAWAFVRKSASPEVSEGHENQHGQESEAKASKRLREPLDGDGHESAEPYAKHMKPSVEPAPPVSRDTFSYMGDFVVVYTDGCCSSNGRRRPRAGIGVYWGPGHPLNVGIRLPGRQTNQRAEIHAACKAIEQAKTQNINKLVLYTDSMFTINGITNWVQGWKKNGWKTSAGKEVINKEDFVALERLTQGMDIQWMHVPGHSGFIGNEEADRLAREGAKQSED

IC50 [1] | IC50 (Ribonuclease H1) | SMILES
0.66 µM |  | CC(C)c1ccc(O)c(=O)c(O)c1 [hydroxytropolone, 3]
13 µM | > 100 µM | O=C(O)c1nc(-c2ccccc2)nc(O)c1O
